Experimental data reported in patent US20160000074A1, “HERBICIDAL COMPOSITION AND METHOD OF USE THEREOF” (SYNGENTA PARTICIPATIONS AG, priority 2013, published 2016).

Experiments:
Assay in all cases: Turf selectivity evaluation, visual phytotoxicity, glasshouse pots
Type in all cases: in vivo
Conditions in all cases: visual evaluation 7, 14, 21, 28 DAA
[1] = test system: Poa pratensis (POAPR, Kentucky Bluegrass, Midnight star)
Experimental: (§1) Turf selectivity evaluations were performed on the most important cool-season turf varieties, across 4 application rates with two replications contained within a factorial design. Sarmentine was applied at 0, 1500, 3000, and 6000 g ai ha^−1 on Sep. 11, 2010 using a spray volume of 800 L ha^−1 with 0.2% V/V x-77 adjuvant. The solution was delivered with LU 90-02S Lechler nozzles at 2.58 bars with an application speed of 0.96 km hr^−1.
(§2) Plants were grown in 9 cm diameter pots using Les Barges soil, previously characterized as containing 25.4% clay; 7.1% loam, 67.5% sand, 7% CaCO3, 2.4% organic matter, and pH 7.5. Pots were fertilized with Oscarna Rasaflor at 100 g m-2 at seeding. Plants were grown throughout the experiment with day/night temperatures of 23° C./15° C. with relative humidity of between 50-60%.
(§3) Turf species (Table 1) were visually evaluated for symptoms of phytotoxicity (%) using the untreated control as a bench-mark for comparison at 7, 14, 21, and 28 days after application (DAA). Turfgrass species were mown at 13 DAA.

[2] = test system: Poa annua var. Reptans (POAAN, Annual bluegrass, True Putt)
Experimental: as §1, §2, §3

[3] = test system: Lolium perenne (LOLPE, Perennial Ryegrass, Citation Fore)
Experimental: as §1, §2, §3

[4] = test system: Agrostis stolonifera (AGSST, Creeping Bentgrass, Pennlinks)
Experimental: as §1, §2, §3

[5] = test system: Festuca arundinacea (FESAR, Tall Fescue, Farandole)
Experimental: as §1, §2, §3

[6] = rate 1500 g ai ha^-1, grass x rate estimate
[7] = rate 3000 g ai ha^-1, grass x rate estimate
[8] = rate 6000 g ai ha^-1, grass x rate estimate

SMILES: CCCCC/C=C/C=C/C(=O)N1CCCC1 [sarmentine, N-(2E,4E-Decadienoyl)pyrrolidine]
- Phyto-toxicity Estimate (% of Untreated) [1, 6]: 6.3 % of Untreated
- Phyto-toxicity Estimate (% of Untreated) [1, 7]: 8.8 % of Untreated
- Phyto-toxicity Estimate (% of Untreated) [1, 8]: 21.3 % of Untreated
- Phyto-toxicity Estimate (% of Untreated) [2, 6]: 35.0 % of Untreated
- Phyto-toxicity Estimate (% of Untreated) [2, 7]: 53.8 % of Untreated
- Phyto-toxicity Estimate (% of Untreated) [2, 8]: 83.1 % of Untreated
- Phyto-toxicity Estimate (% of Untreated) [3, 6]: 15.3 % of Untreated
- Phyto-toxicity Estimate (% of Untreated) [3, 7]: 27.2 % of Untreated
- Phyto-toxicity Estimate (% of Untreated) [3, 8]: 46.3 % of Untreated
- Phyto-toxicity Estimate (% of Untreated) [4, 6]: 13.1 % of Untreated
- Phyto-toxicity Estimate (% of Untreated) [4, 7]: 19.4 % of Untreated
- Phyto-toxicity Estimate (% of Untreated) [4, 8]: 27.5 % of Untreated
- Phyto-toxicity Estimate (% of Untreated) [5, 6]: 14.1 % of Untreated
- Phyto-toxicity Estimate (% of Untreated) [5, 7]: 22.8 % of Untreated
- Phyto-toxicity Estimate (% of Untreated) [5, 8]: 31.3 % of Untreated
